# Laboratory results: paper PMC10994559 (PLOS Neglected Tropical Diseases, 2024)
# Where two headings read alike, the source gives them in different places.
# What was measured:
# T. brucei brucei BSF = test: T. brucei BSF viability, resazurin reduction; type: cell-based, Trypanosoma brucei brucei; details: for EC50: ± SD (Table 2) / ± SE (S3 Table)
# Experimental: T. brucei brucei (strain 427 Lister) blood stream form (BSF) parasites were passaged in complete HMI-9 media supplemented with 10% FCS, Pen-Strep (0.1%) and 2-mercaptoethanol (0.014 v/v) and kept in a 37° C CO2 incubator in filter-cap flasks.
# (§1) Viability of T. brucei brucei BSF and T. cruzi trypomastigotes was assayed with fluorescence resazurin reduction assay, essentially as described above. […] Next, selected compounds were tested at 2.5 μM concentration, and promising compounds subjected to 18 concentrations dose response analyses. AN3057 and AmB were used as a control drug in T. brucei and T. cruzi, respectively.
# [1] = system: L. infantum promastigotes; test: L. infantum promastigote viability, resazurin reduction; type: cell-based, Leishmania infantum; details: for viability at 2.5 µM / viability at 25 µM: Leishmania infantum
# Text: (§2) The infectivity of the parasites was boosted by passaging in Balb/c mice and culturing the infected lymph nodes after six weeks. L. infantum (MHOM / BR / 76 / M4192) parasite was passaged in the same media formulation with 0.5% urine.
# T. cruzi trypomastigotes = test: T. cruzi viability, resazurin reduction; type: cell-based, Trypanosoma cruzi; details: for viability at 2.5 µM / viability at 25 µM: Trypanosoma cruzi
# Experimental: T. cruzi (Y strain) trypomastigotes were passaged in liver infusion broth media supplemented with tryptose, NaCl, Na2HPO4, KCl, glucose, hemin, Pen-Strep (1%), 10% FCS (pH: 7.2) and kept at 28°C.
# as §1
# [2] = system: L. major axenic amastigotes; test: L. major axenic amastigote viability, resazurin reduction
# Experimental: L. major LV561(MHOM/IL/67/LRC-L137 JERICHO II) amastigotes were passaged in Grace insect medium supplemented with NaHCO3, 0.1% amikin and 20% of FCS (pH: 5.4) and kept at 33°C.
# Exponential growth phase promastigotes of L. major or L. infantum and axenic amastigotes (L. major) were harvested and seeded in 384 well plates (white, non-transparent, tissue culture treated, flat bottom; Corning) (0.5x10^5 cells per well). Compounds were pre-dispensed into the plate with an Echo 650 acoustic dispenser (Beckman Coulter). After 72h incubation, resazurin was added (1:10 v/v) from a […] stock in PBS, followed by incubation for six hours. Then, fluorescence intensity was measured using a microplate reader (Synergy H1, BioTek) with excitation filter: 550 nm and emission filter: 590 nm. Efficient compounds were selected for the next round of viability assay with 2.5 μM concentrations of the compounds. […] All experiments were performed with AmB as a positive control drug in parallel.
# Axenic amastigotes, the relevant form that persists in the infected host, were generated in the lab through established procedures, employing harsh pH (pH 5) and high temperature (33°C) conditions.
# [3] = system: intracellular L. infantum amastigotes; test: Parasite rescue assay (intramacrophage, J774 infected with L. infantum); type: cell-based, Leishmania infantum
# E. histolytica = E. histolytica viability, ATP luminescence (Cell titer glo); type: cell-based, Entamoeba histolytica; details: for viability at 2.5 µM / viability at 25 µM: Entamoeba histolytica
# In short: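 E. histolytica strain B2-5 at 2.5x10^4 cells/ml was exposed to compound for 48 h at 37 °C under anaerobic conditions, with viability read as ATP luminescence (CellTiter-Glo). The primary screen used 25 μM in triplicate, and follow-up potency runs used 9–16-point ranges spanning 0.01–100 μM.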
# [4] = system: Murine macrophage cells (J774); test: Cytotoxicity assay J774, resazurin reduction; type: cell-based; details: for EC50: cytotoxicity, 72 h
# Experimental: (§3) Mammalian cell lines (J774 and HepG2) were passaged in RPMI media supplemented with MEM, Pen-Strep (1%) and 10% FCS. Cultures were kept at 37°C incubator with 5% CO2 in filter-cap flasks.
# (§4) Murine macrophage cells (J774) and human hepatocyte carcinoma HepG2 cells were seeded at 0.5x10^5 cell/well in 384 well plates in triplicate, exposed to serial dilution of compounds, dispensed using an Echo 650 acoustic dispenser (Labcyte). After incubation for 72 h at 37°C, 5% CO2, cell viability was determined using fluorescence resazurin reduction assay (λEx: 550 nm; λEm: 590 nm).
# L. major promastigotes = test: L. major promastigote viability, resazurin reduction; type: cell-based, Leishmania major; details: for viability at 25 µM: Leishmania major
# Text: as §2
# [5] = system: intracellular L. infantum amastigotes; test: Parasite rescue assay (intramacrophage, J774 infected with L. infantum); type: cell-based, Leishmania infantum; remark: listed apart in the source
# Experimental: After 24 h incubation, cells were washed five times with serum free RPMI and exposed to a serial dilution of test compounds, prepared using an acoustic dispenser (Echo 650, Labcyte), in RPMI (2% FCS). After two days, cells were washed thrice, and 20 μl of 0.05% SDS in RPMI was added upon removal of the supernatant. Upon incubation under orbital shaking for 30 seconds, cell lysis was stopped by addition of 180 μl M199 medium supplemented with 10% FCS. […] Then, fluorescence intensity of the samples was measured with a microplate reader (Synergy H1, BioTek) with λEx: 550 nm and λEm: 590 nm. Percent of viability was calculated according to cell only and media controls.
# J774A.1 cells (J774) were infected with L. infantum metacyclic promastigotes. […] After controlled lysis of the infected macrophages, the released parasites were quantified using a resazurin based viability assay.
# [6] = Cytotoxicity assay J774, resazurin reduction; type: cell-based, murine; details: mouse, J774 macrophage cells
# Experimental: as §3, §4
# [7] = Trypanosoma brucei, read-out: EC50 T. brucei BSF, dose response, triplicate
# [8] = Leishmania infantum, J774, read-out: EC50 L. infantum rescue assay, intramacrophage (J774), 18 concentrations
molecule,measurement,setting,value
LTC-4,"viability, T.brucei (2.5 µM)",T. brucei brucei BSF; 2.5 µM,100.44±5.5
same,"viability, T.brucei (25 µM)",T. brucei brucei BSF; 25 µM,89.28±12.34
same,"viability, L. infantum promastigote (2.5 µM)","[1]; 2.5 µM, sheet LTC_compound_viability, value ± spread",85.51±1.79
same,"viability, L. infantum promastigote (25 µM)","[1]; 25 µM, sheet LTC_compound_viability, value ± spread",24.04±0.45
same,"viability, T.cruzi (2.5 µM)",T. cruzi trypomastigotes; 2.5 µM,57.84±2.64
same,"viability, T.cruzi (25 µM)",T. cruzi trypomastigotes; 25 µM,58.59±2.21
same,"viability, L.major amastigote (25 µM)",[2]; 25 µM,76.6±1.33
same,"viability, intracellular L. major amastigote (25 µM)",[3]; 25 µM,76.09±31.52
same,"viability, E.histolytica (2.5 µM)",E. histolytica; 2.5 µM,68±7.58
same,"viability, E.histolytica (25 µM)",E. histolytica; 25 µM,71.3±5.74
same,"viability, J774 (2.5 µM)",[4]; 2.5 µM,100.11±5.45
same,"viability, J774 (25 µM)",[4]; 25 µM,144.21±37.63
same,"viability, L.major promastigote (25 µM)",L. major promastigotes; 25 µM,1.56±2.86
same,"viability, L.major promastigote (25 µM)","L. major promastigotes; head prints 25 µM, second of two columns with this head",60.14±7.43
CC(C)(C)OC(=O)NC(Cc1ccccc1)C(O)CNc1ccc(C(C)(C)C)cc1 (stereo not shown) [LTC-1035],viability at 2.5 µM,"T. brucei brucei BSF; Trypanosoma brucei, 2.5 µM, read-out: viability, T.brucei (2.5 µM)",71.2 ± 5.31%
same,viability at 25 µM,"T. brucei brucei BSF; Trypanosoma brucei, 25 µM, read-out: viability, T.brucei (25 µM)",2.22 ± 0.96%
same,EC50,T. brucei brucei BSF; [7],2900 ± 1700 nM
same,viability at 2.5 µM,"[1]; 2.5 µM, sheet LTC_compound_viability, value ± spread, read-out: viability, L. infantum promastigote (2.5 µM)",68.3 ± 1.6%
same,viability at 25 µM,"[1]; 25 µM, sheet LTC_compound_viability, value ± spread, read-out: viability, L. infantum promastigote (25 µM)",0.84 ± 0.54%
same,viability at 2.5 µM,"T. cruzi trypomastigotes; 2.5 µM, read-out: viability, T.cruzi (2.5 µM)",63.9 ± 2.75%
same,viability at 25 µM,"T. cruzi trypomastigotes; 25 µM, read-out: viability, T.cruzi (25 µM)",25.6 ± 1.61%
same,viability at 25 µM,"[2]; Leishmania major, read-out: viability, L.major amastigote (25 µM)",27.7 ± 0.6%
same,viability at 2.5 µM,"[2]; Leishmania major, read-out: viability, L.major amastigote(2.5 µM)",71.4 ± 0.91%
same,viability at 25 µM,"[3]; J774, 25 µM, intracellular amastigote, read-out: viability, intracellular L. major amastigote (25 µM)",11.4 ± 1.86%
same,EC50,[5]; [8],6700 ± 1700 nM
same,EC50,"[5]; read-out: EC50 L. infantum rescue assay, intramacrophage (J774), 18 concentrations",6670 ± 1700 nM
same,viability at 2.5 µM,"E. histolytica; read-out: viability, E.histolytica (2.5 µM)",48.5 ± 2.26%
same,viability at 25 µM,"E. histolytica; read-out: viability, E.histolytica (25 µM)",101 ± 21.2%
same,"viability at 72 h, 2.5 µM","[6]; read-out: viability, J774 (2.5 µM)",92.3 ± 5.33%
same,"viability at 72 h, 25 µM","[6]; read-out: viability, J774 (25 µM)",95.4 ± 11.3%
same,EC50,"[4]; Mus musculus, J774, 72 h",> 25000 nM
same,EC50,[4],> 16000 nM
same,viability at 25 µM,"L. major promastigotes; 72 h, read-out: viability, L.major promastigote (25 µM)",89.5 ± 1.08%
same,viability at 25 µM,"L. major promastigotes; 25 µM, read-out: viability, L.major promastigote (25 µM)",2.19 ± 1.75%
CC[C@@H](C)[C@H](c1nc2ccccc2n1Cc1cn(-c2c(F)c(F)c(F)c(F)c2F)nn1)N1C(=O)c2ccc(C)cc2C1=O [PHT-80],"Residual viability, T.brucei (2.5 µM)","T. brucei brucei BSF; BSF, 2.5 µM, 72 h",3.41±0.28%
same,viability at 25 µM,"T. brucei brucei BSF; Trypanosoma brucei, 72 h, BSF, 25 µM, 72 h, read-out: Residual viability, T.brucei (25 µM)",-2.86 ± 1.75%
same,viability at 2.5 µM,"T. brucei brucei BSF; Trypanosoma brucei, 72 h, read-out: Residual viability, T.brucei (2.5 µM), BSF, 2.5 µM, 72 h",3.4%
same,EC50,T. brucei brucei BSF; [7],400 nM
same,EC50,"T. brucei brucei BSF; read-out: EC50 T. brucei BSF, dose response, triplicate",500 nM
same,EC50,"T. brucei brucei BSF; read-out: EC50 T. brucei BSF, dose response, triplicate, listed as PH-80",450 nM
same,viability at 2.5 µM,"[1]; 2.5 µM, 72 h, vs non-treated cells, read-out: Residual viability, L. infantum promastigote (2.5 µM)",90.2 ± 3.63%
same,viability at 25 µM,"[1]; 25 µM, 72 h, vs non-treated cells, ± SD, triplicate, read-out: Residual viability, L. infantum promastigote (25 µM)",2.87 ± 0.48%
same,viability at 2.5 µM,"T. cruzi trypomastigotes; 72 h, 2.5 µM, 72 h, read-out: Residual viability, T.cruzi (2.5 µM)",72.4 ± 2.05%
same,viability at 25 µM,"T. cruzi trypomastigotes; 72 h, read-out: Residual viability, T.cruzi (25 µM), 25 µM, 72 h",25.7 ± 3.29%
same,viability at 2.5 µM,"[2]; Leishmania major, 72 h, read-out: Residual viability, L.major amastigote (2.5 µM)",50.9 ± 3.89%
same,viability at 25 µM,"[2]; Leishmania major, 72 h, read-out: Residual viability, L.major amastigote (25 µM)",1.7%
same,EC50,"[2]; Leishmania major, read-out: EC50 L. major axenic amastigote",2500 ± 1700 nM
same,EC50,[5]; [8],> 10000 nM
same,viability at 25 µM,"[5]; Leishmania infantum, J774, rescue assay in J774, 25 µM, read-out: Residual viability, intracellular L. infantum amastigote (25 µM)",50.6 ± 13.8%
same,viability at 2.5 µM,"E. histolytica; 2.5 µM, 48 h, read-out: Residual viability, E.histolytica (2.5 µM)",61.8 ± 13.1%
same,viability at 25 µM,"E. histolytica; 25 µM, 48 h, read-out: Residual viability, E.histolytica (25 µM)",45.2 ± 18.6%
same,"viability at 72 h, 2.5 µM","[6]; cytotoxicity, 72 h, read-out: Residual viability, J774 (2.5 µM)",124 ± 4.4%
same,"viability at 72 h, 25 µM","[6]; cytotoxicity, 72 h, read-out: Residual viability, J774 (25 µM)",78.1 ± 6.86%
same,EC50,"[4]; Mus musculus, J774, 72 h",> 25000 nM
same,viability at 25 µM,"L. major promastigotes; 25 µM, 72 h, vs non-treated cells, read-out: Residual viability, L.major promastigote (25 µM)",11.3 ± 1.4%
